Like-named read-outs stand apart in the source and are kept apart here.
What was measured:
Assay type in all cases: in vivo
Viola tricolor (VIOTR) [1] = assay: Pre-emergence herbicidal action against VIOTR
Procedure, shortened: (§1)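 Dosages of 320 g/ha or less; pre-emergence; WP or EC in aqueous spray, 0.5% additive, 600 l/ha; greenhouse; visual % effect after ~3 wk relative to control pots.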

[2] = system: Alopecurus myosuroides (ALOMY); assay: Post-emergence herbicidal action against ALOMY; conditions: visual rating about 3 weeks after treatment vs untreated controls (100% = plants have died, 0% = like control plants)
Procedure, shortened: (§2)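 Rates were 320 g/ha or below, applied as aqueous WP/EC spray with 0.5% additive (600 l/ha) onto one-leaf-stage plants. About 3 weeks later in the greenhouse, damage was scored visually against untreated plants on a 0–100% scale, where 100% means plants died.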

[3] = system: Pharbitis purpurea (PHBPU); assay: Pre-emergence herbicidal action against PHBPU
Procedure, shortened: as §1

[4] = system: Alopecurus myosuroides (ALOMY); assay: Pre-emergence herbicidal action against ALOMY; conditions: scored visually after about 3 weeks, 100% = plants have died
Procedure, shortened: as §1

[5] = system: Abutilon theophrasti (ABUTH); assay: Pre-emergence herbicidal action against ABUTH; conditions: 100% = plants have died
Procedure, shortened: as §1

[6] = system: Polygonum convolvulus (POLCO); assay: Post-emergence herbicidal action against POLCO
Procedure, shortened: as §2

Oryza sativa (ORYSA) = conditions: crop plant compatibility, 80 g/ha, effect in comparison to untreated controls
Procedure, shortened: (§3)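 Effects were read visually as % versus untreated controls (0% = no effect, 100% = death) about 3 weeks post-treatment. Application was a post-emergence spray at the one-leaf stage of WP/EC formulations with 0.5% additive at 600 l/ha. Different dosages are denoted a, b and c.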

Zea mays (ZEAMX) [7] = conditions: crop plant compatibility, 80 g/ha, effect vs untreated controls
Procedure, shortened: as §3

[8] = system: Polygonum convolvulus (POLCO); assay: Pre-emergence herbicidal action against POLCO
Procedure, shortened: as §1

Lolium rigidum (LOLRI) [9] = assay: Pre-emergence herbicidal action against LOLRI
Procedure, shortened: as §1

Avena fatua (AVEFA) [10] = assay: Post-emergence herbicidal action against AVEFA; conditions: 320 g/ha, visual rating about 3 weeks after treatment
Procedure, shortened: as §2

[11] = system: Echinochloa crus-galli (ECHCG); assay: Pre-emergence herbicidal action against ECHCG
Procedure, shortened: as §1

[12] = system: Amaranthus retroflexus (AMARE); assay: Pre-emergence herbicidal action against AMARE; conditions: visual scoring after about 3 weeks vs untreated controls
Procedure, shortened: as §1

Zea mays (ZEAMX) [13] = conditions: pre-emergence, 80 g/ha, crop plant compatibility, in comparison to untreated controls
Procedure, shortened: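 Crop injury rated visually in percent against untreated plants roughly 3 weeks after treatment (0% no effect, 100% plants dead). Compounds, as WP or EC with 0.5% additive in 600 l/ha water, were applied to the covering soil right after sowing; greenhouse growth. Suffixes a, b, c denote different dosages.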

Setaria viridis (SETVI) [14] = assay: Pre-emergence herbicidal action against SETVI
Procedure, shortened: as §1

Viola tricolor (VIOTR) [15] = assay: Post-emergence herbicidal action against VIOTR
Procedure, shortened: as §2

[16] = system: Amaranthus retroflexus (AMARE); assay: Post-emergence herbicidal action against AMARE
Procedure, shortened: as §2

Setaria viridis (SETVI) [17] = assay: Post-emergence herbicidal action against SETVI
Procedure, shortened: as §2

Avena fatua (AVEFA) [18] = assay: Pre-emergence herbicidal action against AVEFA; conditions: visual scoring after about 3 weeks vs untreated controls
Procedure, shortened: as §1

[19] = system: Matricaria inodora (MATIN); assay: Pre-emergence herbicidal action against MATIN
Procedure, shortened: as §1

[20] = system: Pharbitis purpurea (PHBPU); assay: Post-emergence herbicidal action against PHBPU
Procedure, shortened: as §2

[21] = system: Verconica persica (VERPE); assay: Post-emergence herbicidal action against VERPE
Procedure, shortened: as §2

[22] = system: Abutilon theophrasti (ABUTH); assay: Post-emergence herbicidal action against ABUTH; conditions: visual rating about 3 weeks after treatment vs untreated controls (100% = plants have died, 0% = like control plants)
Procedure, shortened: as §2

Lolium rigidum (LOLRI) [23] = assay: Post-emergence herbicidal action against LOLRI
Procedure, shortened: as §2

[24] = system: Verconica persica (VERPE); assay: Pre-emergence herbicidal action against VERPE; conditions: dosage 320 g/ha
Procedure, shortened: as §1

[25] = system: Echinochloa crus-galli (ECHCG); assay: Post-emergence herbicidal action against ECHCG
Procedure, shortened: as §2

[26] = system: Triticum aestivum (TRZAS); conditions: crop plant compatibility, effect vs untreated controls
Procedure, shortened: as §3

[27] = Dosage column 320 g/ha (title prints 3200 g/ha), scored visually after about 3 weeks
[28] = 320 g/ha, visual rating about 3 weeks after treatment

## CCOC(=O)COc1nn(-c2nc(F)ccc2F)c(-c2ccc(F)nc2)c1Cl [Example I-315]
Viola tricolor (VIOTR) [1]; 320 g/ha, Viola tricolor
  Pre-emergence action against VIOTR in %: 100%
Viola tricolor (VIOTR) [1]; dosage 80 g/ha
  Pre-emergence action against VIOTR in %: 90%
[2]; 80 g/ha
  Post-emergence action against ALOMY in %: 80%
[2]; 320 g/ha
  Post-emergence action against ALOMY in %: 90%
[3]; dosage 80 g/ha
  Pre-emergence action against PHBPU in %: 90%
[3]; dosage 320 g/ha
  Pre-emergence action against PHBPU in %: 90%
[4]; 80 g/ha
  Pre-emergence action against ALOMY: 100%
[4]; 320 g/ha
  Pre-emergence action against ALOMY: 100%
[5]; [27]
  Pre-emergence action against ABUTH: 80%
[6]; dosage 80 g/ha
  Post-emergence action against POLCO in %: 80%
[6]; dosage 320 g/ha
  Post-emergence action against POLCO in %: 80%
Oryza sativa (ORYSA)
  Post-emergence action against ORYSA in %: 20%
Zea mays (ZEAMX) [7]
  Post-emergence action against ZEAMX in %: 20%
[8]; dosage 80 g/ha
  Pre-emergence action against POLCO in %: 80%
[8]; dosage 320 g/ha
  Pre-emergence action against POLCO in %: 90%
Lolium rigidum (LOLRI) [9]; dosage 320 g/ha
  Pre-emergence action against LOLRI in %: 100%
Avena fatua (AVEFA) [10]
  Post-emergence action against AVEFA in %: 80%
[11]; dosage 80 g/ha
  Pre-emergence action against ECHCG in %: 90%
[11]; dosage 320 g/ha
  Pre-emergence action against ECHCG in %: 100%
[12]; 80 g/ha
  Pre-emergence action against AMARE in %: 90%
[12]; 320 g/ha
  Pre-emergence action against AMARE in %: 90%
Zea mays (ZEAMX) [13]
  Pre-emergence action against ZEAMX in %: 10%
Setaria viridis (SETVI) [14]; dosage 320 g/ha
  Pre-emergence action against SETVI in %: 100%
Viola tricolor (VIOTR) [15]; 320 g/ha
  Post-emergence action against VIOTR in %: 80%
[16]; 80 g/ha, visual rating about 3 weeks after treatment vs untreated controls (100% = plants have died, 0% = like control plants)
  Post-emergence action against AMARE in %: 80%
[16]; [28]
  Post-emergence action against AMARE in %: 80%
Setaria viridis (SETVI) [17]; dosage 320 g/ha
  Post-emergence action against SETVI in %: 80%
Avena fatua (AVEFA) [18]; 320 g/ha
  Pre-emergence action against AVEFA in %: 90%
[19]; dosage 80 g/ha
  Pre-emergence action against MATIN in %: 80%
[19]; dosage 320 g/ha
  Pre-emergence action against MATIN in %: 90%
[20]; dosage 80 g/ha
  Post-emergence action against PHBPU in %: 80%
[20]; dosage 320 g/ha
  Post-emergence action against PHBPU in %: 80%
[21]; 320 g/ha, VERPE
  Post-emergence action against VERPE in %: 90%
[21]; dosage 80 g/ha
  Post-emergence action against VERPE in %: 80%
[22]; 80 g/ha
  Post-emergence action against ABUTH in %: 80%
[22]; 320 g/ha
  Post-emergence action against ABUTH in %: 80%
Lolium rigidum (LOLRI) [23]; dosage 320 g/ha
  Post-emergence action against LOLRI in %: 90%
[24]
  Pre-emergence action against VERPE in %: 100%
[25]; dosage 80 g/ha
  Post-emergence action against ECHCG in %: 90%
[25]; dosage 320 g/ha
  Post-emergence action against ECHCG in %: 100%

## CCOC(=O)COc1nn(-c2ccnc(Cl)c2)c(-c2ccc(F)nc2)c1Br [III-24]
Viola tricolor (VIOTR) [1]; 320 g/ha, Viola tricolor
  Pre-emergence action against VIOTR in %: 100%
Viola tricolor (VIOTR) [1]; dosage 80 g/ha
  Pre-emergence action against VIOTR in %: 100%
[2]; 80 g/ha
  Post-emergence action against ALOMY in %: 100%
[2]; 320 g/ha
  Post-emergence action against ALOMY in %: 100%
[3]; dosage 320 g/ha
  Pre-emergence action against PHBPU in %: 100%
[4]; 80 g/ha
  Pre-emergence action against ALOMY: 100%
[4]; 320 g/ha
  Pre-emergence action against ALOMY: 100%
[5]; 80 g/ha, scored visually after about 3 weeks vs untreated controls, 0% = like control plants
  Pre-emergence action against ABUTH: 90%
[5]; [27]
  Pre-emergence action against ABUTH: 100%
[6]; dosage 320 g/ha
  Post-emergence action against POLCO in %: 90%
Oryza sativa (ORYSA)
  Post-emergence action against ORYSA in %: 0%
[26]; 80 g/ha
  Post-emergence action against TRZAS in %: 0%
[26]; 320 g/ha
  Post-emergence action against TRZAS in %: 0%
[8]; dosage 320 g/ha
  Pre-emergence action against POLCO in %: 100%
Lolium rigidum (LOLRI) [9]; dosage 80 g/ha
  Pre-emergence action against LOLRI in %: 100%
Lolium rigidum (LOLRI) [9]; dosage 320 g/ha
  Pre-emergence action against LOLRI in %: 100%
Avena fatua (AVEFA) [10]
  Post-emergence action against AVEFA in %: 80%
[11]; dosage 80 g/ha
  Pre-emergence action against ECHCG in %: 90%
[11]; dosage 320 g/ha
  Pre-emergence action against ECHCG in %: 100%
[12]; 80 g/ha
  Pre-emergence action against AMARE in %: 100%
[12]; 320 g/ha
  Pre-emergence action against AMARE in %: 100%
Setaria viridis (SETVI) [14]; dosage 80 g/ha
  Pre-emergence action against SETVI in %: 100%
Setaria viridis (SETVI) [14]; dosage 320 g/ha
  Pre-emergence action against SETVI in %: 100%
Viola tricolor (VIOTR) [15]; 80 g/ha
  Post-emergence action against VIOTR in %: 80%
Viola tricolor (VIOTR) [15]; 320 g/ha
  Post-emergence action against VIOTR in %: 90%
[16]; [28]
  Post-emergence action against AMARE in %: 100%
Setaria viridis (SETVI) [17]; dosage 80 g/ha
  Post-emergence action against SETVI in %: 100%
Setaria viridis (SETVI) [17]; dosage 320 g/ha
  Post-emergence action against SETVI in %: 100%
Avena fatua (AVEFA) [18]; 80 g/ha
  Pre-emergence action against AVEFA in %: 100%
Avena fatua (AVEFA) [18]; 320 g/ha
  Pre-emergence action against AVEFA in %: 100%
[19]; dosage 320 g/ha
  Pre-emergence action against MATIN in %: 100%
[21]; 320 g/ha, VERPE
  Post-emergence action against VERPE in %: 80%
[22]; 80 g/ha
  Post-emergence action against ABUTH in %: 90%
[22]; 320 g/ha
  Post-emergence action against ABUTH in %: 90%
Lolium rigidum (LOLRI) [23]; dosage 80 g/ha
  Post-emergence action against LOLRI in %: 100%
Lolium rigidum (LOLRI) [23]; dosage 320 g/ha
  Post-emergence action against LOLRI in %: 100%
[24]
  Pre-emergence action against VERPE in %: 100%
[25]; dosage 80 g/ha
  Post-emergence action against ECHCG in %: 80%
[25]; dosage 320 g/ha
  Post-emergence action against ECHCG in %: 100%
